This is an account of results in US10173991B2, “Sulfone amide linked benzothiazole inhibitors of endothelial lipase” (BRISTOL-MYERS SQUIBB COMPANY, priority 2014, dated 2019).

The structures appear in SMILES notation. pIC50: −log10 of the molar value.

This assay concerns the target Endothelial lipase (EL) (Homo sapiens (Human), UniProt Q9Y5X9). In words: Endothelial lipase (EL) enzymatic assay with fluorescent substrate A10070 in DMPG vesicles. Type of assay: biochemical. The gist of the method: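 Compounds were preincubated with enzyme for 30 min at 37° C before FRET-substrate vesicles (A10070 in DMPG, 0.11 mole fraction) were added. Reaction rates were obtained from the 300–900 sec slope of fluorescence at 490/530 nm.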

Sequence of Endothelial lipase (EL) (Q9Y5X9 21-500): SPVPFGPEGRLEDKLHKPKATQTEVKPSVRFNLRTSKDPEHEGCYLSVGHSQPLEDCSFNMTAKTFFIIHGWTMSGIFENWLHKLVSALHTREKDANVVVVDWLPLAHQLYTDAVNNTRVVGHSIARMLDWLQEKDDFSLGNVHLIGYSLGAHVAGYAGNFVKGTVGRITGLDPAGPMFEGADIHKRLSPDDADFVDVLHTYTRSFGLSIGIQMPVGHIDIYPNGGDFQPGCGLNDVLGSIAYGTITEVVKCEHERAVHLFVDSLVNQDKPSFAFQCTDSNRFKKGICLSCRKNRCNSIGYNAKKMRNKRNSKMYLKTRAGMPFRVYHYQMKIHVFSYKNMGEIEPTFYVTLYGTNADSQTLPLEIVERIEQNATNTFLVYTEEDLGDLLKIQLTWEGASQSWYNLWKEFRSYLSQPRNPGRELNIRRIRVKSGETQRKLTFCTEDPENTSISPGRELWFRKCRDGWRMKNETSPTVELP

As for `COCCS(=O)(=O)C(C(=O)NCC(=O)NC1CC1)c1nc2ccc(-c3ccnc(OC)c3F)cc2s1` (stereo not shown) [Example 343, N-[(cyclopropyl-carbamoyl)methyl]-2-[6-(3-fluoro-2-methoxypyridin-4-yl)-1,3-benzothiazol-2-yl]-2-(2-methoxyethane-sulfonyl)acetamide], the pIC50 is 7.32.

For `COCCS(=O)(=O)C(C(=O)NCC(=O)NC1CC1)c1nc2ccc(-c3ccc4c(c3)C(=O)NC4)cc2s1` (stereo not shown) [Example 344, N-[(cyclopropyl-carbamoyl)methyl]-2-(2-methoxyethane-sulfonyl)-2-[6-(3-oxo-2,3-dihydro-1H-isoindol-5-yl)-1,3-benzothiazol-2-yl]acetamide], the negative logarithm of the IC50 (pIC50) is 7.01.

As to `COCCS(=O)(=O)C(C(=O)NCC(=O)NC1CC1)c1nc2ccc(-c3cnc(Cl)n3C)cc2s1` (stereo not shown) [Example 345, 2-[6-(2-chloro-1-methyl-1H-imidazol-5-yl)-1,3-benzothiazol-2-yl]-N-[(cyclopropyl-carbamoyl)methyl]-2-(2-methoxyethane-sulfonyl)acetamide], the pIC50 was 6.87.

`COCCS(=O)(=O)C(C(=O)NCC(=O)NC1CC1)c1nc2cc(-c3cnc(C)nc3)c(F)cc2s1` (stereo not shown) [Example 346, N-[(cyclopropyl-carbamoyl)methyl]-2-[6-fluoro-5-(2-methylpyrimidin-5-yl)-1,3-benzothiazol-2-yl]-2-(2-methoxyethane-sulfonyl)acetamide]: the pIC50 is 8.22.

Regarding `COCCS(=O)(=O)C(C(=O)NCC(=O)NC1CC1)c1nc2cc(-c3ccc4[nH]c(=O)ccc4c3)c(F)cc2s1` (stereo not shown) [Example 347, N-[(cyclopropyl-carbamoyl)methyl]-2-[6-fluoro-5-(2-oxo-1,2-dihydroquinolin-6-yl)-1,3-benzothiazol-2-yl]-2-(2-methoxyethane-sulfonyl)acetamide], the pIC50 was 7.74. This pIC50 lies 0.48 log units lower than the previous one.

`COCCS(=O)(=O)C(C(=O)NCC(=O)NC1CC1)c1nc2cc(-c3cnc(C4CC4)nc3)c(F)cc2s1` (stereo not shown) [Example 348, N-[(cyclopropyl-carbamoyl)methyl]-2-[5-(2-cyclopropyl-pyrimidin-5-yl)-6-fluoro-1,3-benzothiazol-2-yl]-2-(2-methoxyethane-sulfonyl)acetamide] gave a pIC50 of 8.00.

As for `COCCS(=O)(=O)C(C(=O)NCC(=O)NC1CC1)c1nc2cc(-c3ccc4c(c3)CC(=O)N4)c(F)cc2s1` (stereo not shown) [Example 349, N-[(cyclopropyl-carbamoyl)methyl]-2-[6-fluoro-5-(2-oxo-2,3-dihydro-1H-indol-5-yl)-1,3-benzothiazol-2-yl]-2-(2-methoxyethane-sulfonyl)acetamide], the pIC50 is 7.38.

For `COCCS(=O)(=O)C(C(=O)NCC(=O)NC1CC1)c1nc2cc(-c3ccc4c(c3)C(=O)NC4)c(F)cc2s1` (stereo not shown) [Example 350, N-[(cyclopropyl-carbamoyl)methyl]-2-[6-fluoro-5-(3-oxo-2,3-dihydro-1H-isoindol-5-yl)-1,3-benzothiazol-2-yl]-2-(2-methoxyethane-sulfonyl)acetamide], the pIC50 was 7.74. Against the preceding compound, the pIC50 is 0.36 log units higher.

For the compound `COCCS(=O)(=O)C(C(=O)NCC(=O)NC1CC1)c1nc2cc(-c3cnnc(C)c3)c(F)cc2s1` (stereo not shown) [Example 351, N-[(cyclopropyl-carbamoyl)methyl]-2-[6-fluoro-5-(6-methylpyridazin-4-yl)-1,3-benzothiazol-2-yl]-2-(2-methoxyethane-sulfonyl)acetamide], the pIC50 is 7.44. Against the preceding compound, the pIC50 is 0.30 log units lower.

`COCCS(=O)(=O)C(C(=O)NCC(=O)NCCOC(C)C)c1nc2cc(-c3ccc(F)nc3)c(F)cc2s1` (stereo not shown) [Example 352, 2-[6-fluoro-5-(6-fluoropyridin-3-yl)-1,3-benzothiazol-2-yl]-2-(2-methoxyethane-sulfonyl)-N-({[2-(propan-2-yloxy)ethyl]carbamoyl}methyl)acetamide] had a pIC50 of 7.85.

`COCCS(=O)(=O)C(C(=O)NCC(=O)NCCOC(C)C)c1nc2cc(-c3ccn(C)c(=O)c3)c(F)cc2s1` (stereo not shown) [Example 353, 2-[6-fluoro-5-(1-methyl-2-oxo-1,2-dihydropyridin-4-yl)-1,3-benzothiazol-2-yl]-2-(2-methoxyethane-sulfonyl)-N-({[2-(propan-2-yloxy)ethyl]carbamoyl}methyl)acetamide] had a pIC50 of 7.47.

Compound `COCCS(=O)(=O)C(C(=O)NCC(=O)NCCOC(C)C)c1nc2cc(-c3ccc4c(c3)CNC4=O)c(F)cc2s1` (stereo not shown) [Example 354, 2-[6-fluoro-5-(1-oxo-2,3-dihydro-1H-isoindol-5-yl)-1,3-benzothiazol-2-yl]-2-(2-methoxyethane-sulfonyl)-N-({[2-(propan-2-yloxy)ethyl]carbamoyl}methyl)acetamide] had a pIC50 of 7.62.

`COCCS(=O)(=O)C(C(=O)NCC(=O)NCCOC(C)C)c1nc2cc(-c3ccc(=O)n(C)c3)c(F)cc2s1` (stereo not shown) [Example 355, 2-[6-fluoro-5-(1-methyl-6-oxo-1,6-dihydropyridin-3-yl)-1,3-benzothiazol-2-yl]-2-(2-methoxyethane-sulfonyl)-N-({[2-(propan-2-yloxy)ethyl]carbamoyl}methyl)acetamide]: the pIC50 is 7.44. This pIC50 and that of the compound before are within 0.2 log units of each other.

Compound `COCCS(=O)(=O)C(C(=O)NCC(=O)NCCOC(C)C)c1nc2cc(-c3cnc(C)nc3)c(F)cc2s1` (stereo not shown) [Example 356, 2-[6-fluoro-5-(2-methylpyrimidin-5-yl)-1,3-benzothiazol-2-yl]-2-(2-methoxyethane-sulfonyl)-N-({[2-(propan-2-yloxy)ethyl]carbamoyl}methyl)acetamide] had a pIC50 of 7.26.

Consider `COCCS(=O)(=O)C(C(=O)NCC(=O)NCCOC(C)C)c1nc2cc(-c3ccnn3C)c(F)cc2s1` (stereo not shown) [Example 357, 2-[6-fluoro-5-(1-methyl-1H-pyrazol-5-yl)-1,3-benzothiazol-2-yl]-2-(2-methoxyethane-sulfonyl)-N-({[2-(propan-2-yloxy)ethyl]carbamoyl}methyl)acetamide], for which the pIC50 is 7.31.

The compound `COCCS(=O)(=O)C(C(=O)NCC(=O)NCCOC(C)C)c1nc2cc(-c3cnnc(C)c3)c(F)cc2s1` (stereo not shown) [Example 358, 2-[6-fluoro-5-(6-methylpyridazin-4-yl)-1,3-benzothiazol-2-yl]-2-(2-methoxyethane-sulfonyl)-N-({[2-(propan-2-yloxy)ethyl]carbamoyl}methyl)acetamide] showed a pIC50 of 7.22.

`CS(=O)(=O)C(C(=O)NCC(=O)NC1CC1)c1nc2cc(-c3ccc(F)nc3)c(F)cc2s1` (stereo not shown) [Example 359, N-[(cyclopropyl-carbamoyl)methyl]-2-[6-fluoro-5-(6-fluoropyridin-3-yl)-1,3-benzothiazol-2-yl]-2-methanesulfonyl-acetamide] showed a pIC50 of 8.15.

With `CC(C)OCCNC(=O)CNC(=O)C(c1nc2cc(-c3ccc(F)nc3)c(F)cc2s1)S(C)(=O)=O` (stereo not shown) [Example 360, 2-[6-fluoro-5-(6-fluoropyridin-3-yl)-1,3-benzothiazol-2-yl]-2-methanesulfonyl-N-({[2-(propan-2-yloxy)ethyl]carbamoyl}methyl)acetamide], the pIC50 was 7.68.

Compound `Cc1cc(-c2cc3nc(C(C(=O)NCC(=O)NC4CC4)S(C)(=O)=O)sc3cc2F)cnn1` (stereo not shown) [Example 361, N-[(cyclopropyl-carbamoyl)methyl]-2-[6-fluoro-5-(6-methylpyridazin-4-yl)-1,3-benzothiazol-2-yl]-2-methanesulfonyl-acetamide] showed a pIC50 of 7.59.

As a reminder, the pIC50 is the negative decadic logarithm of the IC50, by convention in mol/L. A higher pIC50 goes with a low IC50.
